The source of these data is patent US8088918B2, “Noncardiotoxic pharmaceutical compounds” (Williamsburg Holdings LLC, priority 2004, dated 2012).

A short description of series [1]: Stability testing in simulated intestinal fluids. The settings on record: 10 μM.
The target of series [2] is T1, recombinant human CYP3A4 (Homo sapiens, UniProt P08684).
T1 construct: purchased BD Gentest (Woburn, Mass.)
Nature of the series: Metabolic stability in the presence of CYP3A4 isozyme. It is filed as in vitro ADME. The settings on record: 10 μm compound. As for the experimental part: (§1) The metabolic stability of each compound prepared in Examples 1-5 was assessed in the presence of CYP2D6 and CYP3A4 obtained from BD Gentest (Woburn, Mass.).
(§2) The metabolic stability of each compound prepared in Examples 1-5 was assessed in duplicate by incubation of 10 μm compound with recombinant human CYP2D6 and 3A4 using similar conditions to those in Example 9. Samples were removed for analysis at 0, 30 and 60 minutes and extracted with one volume of organic solvent. Appropriate controls were included. Quantification of the disappearance of the prodrug was conducted LC-MS. Appearance of metabolites was also monitored.

The target of series [3] is T2, CYP2D6 (Homo sapiens, UniProt P10635). Nature of the series: Metabolic stability in the presence of CYP2D6 isozyme. It is filed as in vitro ADME. The settings on record: 10 μm compound. The arrangement: purchased BD Gentest (Woburn, Mass.). As to the method:
as §1, §2

The nature of series [4]: Metabolic stability, microsomal incubations without inhibitor. It is filed as in vitro ADME. Conditions: 10 μM, 0.5 mg/mL microsomal protein. As for the experimental part: (§3) The metabolic stability of each compound prepared in Examples 1-5 was assessed in microsomal preparations obtained from BD Gentest (Woburn, Mass.).
(§4) The metabolic stability of each compound prepared in Examples 1-5 was assessed in duplicate by incubation of 10 μM compound with 0.5 mg/mL microsomal protein, 1 mM in 0.1 M phosphate buffer, pH 7.4 in the presence and absence of a CYP3A4 inhibitor (ketoconazole). The reaction mixture was pre-incubated, in the absence of the microsomes, at ca. 37° C. for 5 minutes, followed by initiation of the incubation by the addition of microsomal protein and maintained at ca. 37° C. for a further 0, 30 and 60 minutes. After the appropriate incubation time, the mixtures were quenched by the addition of one volume of acetonitrile and the supernatant was isolated by centrifugation. Positive control incubations (7-ethoxycoumarin) were performed in the same manner as the compounds from Examples 1-5 and quenched after 0 and 30 minutes. In addition, negative control incubations were performed for 60 minutes in the absence of NADPH to assess chemical stability.
(§5) Analysis of supernatants from each time interval was conducted for each compound prepared in Examples 1-5 by LC-MS analysis. Quantification of the disappearance on the parent drug was achieved by comparison of the sample response to that of a suitable standard curve constructed in 0.1 M phosphate buffer, pH 7.4. The standard curve ranged between ≦1% up to ≧100% of the dosing concentration.
(§6) The % turnover following 60 minutes of incubation was calculated by comparison of the parent concentration to that at 0 minutes. The % degradation was calculated in the same manner from the negative control incubations. Appearance of the parent drug and the hydroxymetabolites were also monitored at each time interval.

The nature of series [5]: Stability testing in simulated gastric fluids. Conditions: 10 μM, saline pH approximately 1 plus pepsin.
Series [6] is described as follows: Metabolic stability, microsomal incubations with ketoconazole (CYP3A4 inhibitor). It is filed as in vitro ADME. Conditions: 10 μM, 0.5 mg/mL microsomal protein. As for the experimental part:
as §3, §4, §5, §6

A short description of series [7]: Stability testing of prodrugs in human plasma. It is filed as in vitro ADME. Conditions: 10 μM, ca. 37° C. As for the experimental part: Pooled human plasma was obtained from Bioreclamation (East Meadow, N.Y.) by collection into sodium EDTA as the anticoagulant, and was stored at ca −20° C. prior to use. Prior to use, the plasma defrosted and was spun at ca. 3000 rpm for 5 minutes to remove any precipitate. The pH of the plasma was adjusted to pH 7.4 by careful addition of NaH2PO4 buffer.
Plasma stability was assessed by incubation of 10 μM of each compound prepared in Examples 1-5 with human plasma, in duplicate, at ca. 37° C. with shaking. Each compound prepared in Examples 1-5 was also incubated at 10 μM in PBS as a control for compound heat stability. Aliquots were removed at 0, 0.5, 1 and 2 hours and stored at −20° C. until analysis.
For analysis, plasma samples were extracted in 1 part acetonitrile and isolation of the supernatant. Analysis of each compound prepared in Examples 1-5 in plasma extracts was conducted by an LC-MS method at each time interval and quantification was achieved by comparison of the response due to the sample to that of a three point standard curve. Appearance of the parent drug the hydroxymetabolites were also monitored at each time interval. The % degradation following incubation at each time point was calculated by comparison of the parent concentration to that at 0 minutes.

Series [8] is described as follows: Stability testing of prodrugs in rat plasma (elevated esterase activity). It is filed as in vitro ADME, Sprague-Dawley rat. Conditions: 10 μM, ca. 37° C. As to the method:
Sprague-Dawley rat plasma was obtained by collection into sodium EDTA as the anticoagulant, and was stored at ca −20° C. prior to use. Prior to use, the plasma defrosted and was spun at ca. 3000 rpm for 5 minutes to remove any precipitate. The pH of the plasma was adjusted to pH 7.4 by careful addition of NaH2PO4 buffer.
Plasma stability was assessed by incubation of 10 μM of each compound prepared in Examples 1-5 with rat plasma, in duplicate, at ca. 37° C. with shaking. Each compound prepared in Examples 1-5 was also incubated at 10 μM in PBS as a control for compound heat stability. Aliquots were removed at 0, 0.5, 1 and 2 hours and stored at −20° C. until analysis.
For analysis, plasma samples were extracted in 1 part acetonitrile and isolation of the supernatant. Analysis of each compound prepared in Examples 1-5 in plasma extracts was conducted by an LC-MS method at each time interval and quantification was achieved by comparison of the response due to the sample to that of a three point standard curve. Appearance of the parent drug and the hydroxymetabolites were also monitored at each time interval. The % degradation following incubation at each time point was calculated by comparison of the parent concentration to that at 0 minutes.

Series [9] has as its target T2, CYP2D6. Conditions: cited from earlier work.
The conditions of series [10]: preclinical and clinical studies; cited from earlier work.
For series [11] the following is noted: oral administration; cited from earlier work.
For series [12] the following is noted: human plasma; cited from earlier work.
For series [13] the following is noted: parent drugs; cited from earlier work.
For series [14] the following is noted: healthy volunteers, therapeutic plasma concentrations; cited from earlier work.

T2 sequence (P10635 whole entry): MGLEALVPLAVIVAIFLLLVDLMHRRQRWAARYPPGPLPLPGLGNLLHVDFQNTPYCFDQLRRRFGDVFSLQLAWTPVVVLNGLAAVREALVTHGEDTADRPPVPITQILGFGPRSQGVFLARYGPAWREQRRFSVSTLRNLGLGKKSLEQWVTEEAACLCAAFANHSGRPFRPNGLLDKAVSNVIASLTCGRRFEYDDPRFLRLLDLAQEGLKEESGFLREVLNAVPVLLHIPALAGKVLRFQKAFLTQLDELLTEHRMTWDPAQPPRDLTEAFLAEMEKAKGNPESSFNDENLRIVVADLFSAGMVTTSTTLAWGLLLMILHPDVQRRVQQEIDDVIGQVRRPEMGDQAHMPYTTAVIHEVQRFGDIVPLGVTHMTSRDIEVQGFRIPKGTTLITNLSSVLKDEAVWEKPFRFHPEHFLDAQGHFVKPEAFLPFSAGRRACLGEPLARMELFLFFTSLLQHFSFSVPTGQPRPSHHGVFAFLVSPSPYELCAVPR
T1 sequence (P08684 whole entry): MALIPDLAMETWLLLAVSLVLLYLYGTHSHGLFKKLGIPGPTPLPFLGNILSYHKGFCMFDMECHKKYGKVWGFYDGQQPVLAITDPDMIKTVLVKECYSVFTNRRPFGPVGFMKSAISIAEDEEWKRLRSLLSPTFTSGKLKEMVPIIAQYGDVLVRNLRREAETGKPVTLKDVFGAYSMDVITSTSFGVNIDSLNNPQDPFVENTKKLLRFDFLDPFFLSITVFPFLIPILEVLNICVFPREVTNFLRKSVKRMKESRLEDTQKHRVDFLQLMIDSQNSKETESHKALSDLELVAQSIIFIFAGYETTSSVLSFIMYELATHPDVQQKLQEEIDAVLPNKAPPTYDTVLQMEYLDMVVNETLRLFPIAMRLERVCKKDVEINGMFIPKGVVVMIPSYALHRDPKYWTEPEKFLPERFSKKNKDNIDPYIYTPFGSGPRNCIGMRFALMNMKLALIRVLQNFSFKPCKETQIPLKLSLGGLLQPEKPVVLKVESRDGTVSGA

In the case of `CCCCCCCCOC(=O)N(C)CCCN1c2ccccc2CCc2ccccc21` [RIC-5d, [3-(10,11-Dihydro-dibenzo[b,f]azepin-5-yl)-propyl]-methyl-carbamic acid octyl ester], the “Loss of parent compound in simulated intestinal fluid (%)” value is given as 0.00% in [1] (phosphate pH 6, incubation time 0 min); 7.73% in series [1] (phosphate pH 6, incubation time 30 min); −8.72% in [1] (phosphate pH 6, incubation time 60 min); 4.23% in [1] (phosphate pH 6, incubation time 120 min). The “Loss of parent compound with CYP3A4 isozyme (%)” value in series [2] (incubation time 0 min) came out at 0.00%; in series [2] (incubation time 30 min), 33.66%; in series [2] (incubation time 60 min), 60.64%. Besides, the “Loss of parent compound with CYP2D6 isozyme (%)” value in [3] (incubation time 0 min) is listed as 0.00%; in [3] (incubation time 30 min), 18.68%. In addition, the “Loss of parent compound with no ketoconazole (%)” value is recorded as 59.12% in [4] (incubation time 30 min) and 74.17% in [4] (incubation time 60 min). Further, the “Loss of parent compound in simulated gastric fluid (%)” value in series [5] (incubation time 0 min) is listed as 0.00%; in [5] (incubation time 30 min) it was 13.84%. For the same molecule, the “Loss of parent compound with ketoconazole (%)” value in series [6] (incubation time 30 min) is on record as 15.18%; in [6] (incubation time 60 min), 55.88%. The “Loss of parent compound in human plasma (%)” value in [7] (incubation time 0 min) is 0.00%; in [7] (incubation time 30 min), −32.74%; in series [7] (incubation time 60 min), −1.44%; in [7] (incubation time 120 min) it was 49.54%. For the same molecule, the “Loss of parent compound in rat plasma (%)” value in series [8] (incubation time 0 min) is 0.00%; in series [8] (incubation time 30 min), −8.16%; in series [8] (incubation time 60 min) it was 41.70%; in series [8] (incubation time 120 min), 73.48%.
Consider `C[N+](C)([O-])CCCN1c2ccccc2CCc2ccccc21` [imipramine-N-oxide, Imipramine-N-oxide], for which the “metabolism by CYP2D6 to the hydroxymetabolite” value in series [9] was “abolished the metabolism of imipramine by CYP2D6 to the hydroxymetabolite”. In addition, the “cardiotoxicity compared with imipramine” value in [10] was “significantly reduced”. Moreover, in [11], the systemic availability result is on record as “about 100%”.
On to `Fc1ccc([C@@H]2CCNC[C@H]2COc2ccc3c(c2)OCO3)cc1` [paroxetine], for which, in [12], the AUC(0-24) was 96.5 ng·h/mL, the Cmax is 8.60 ng/mL and the Tmax is reported as 5 (3-5) hours. Besides, the pKa in series [13] is 9.90.
Consider `CC(CC(c1ccccc1)c1ccccc1)NC(C)(C)C` (stereo not shown) [terodiline], for which, in series [14], the “increase in mean QTc” value was 23 ms.

The Cmax is the peak of the concentration-time curve. A word on the pKa: it is the negative logarithm of the acid dissociation constant.
